Laboratory results as given in the NIST ThermoML archive (doi:10.1016/j.jct.2006.05.008).
± gives the expanded uncertainty stated by the source.

Assay: molar heat capacity at constant pressure
Details: 101.33 kPa

CCC[n+]1ccn(C)c1.[Br-] [1-methyl-3-propylimidazolium bromide]
Details	molar heat capacity at constant pressure [J/K/mol]
199.31 K, Crystal, Vacuum adiabatic calorimetry	164.75 ± 0.37
199.46 K, Glass, Small (less than 1 g) adiabatic calorimetry	175.22 ± 0.9
200.05 K, Glass, Small (less than 1 g) adiabatic calorimetry	176.21 ± 0.9
200.67 K, Crystal, Vacuum adiabatic calorimetry	166 ± 0.37
200.97 K, Metastable crystal, Small (less than 1 g) adiabatic calorimetry	168.83 ± 0.88
201.03 K, Crystal, Vacuum adiabatic calorimetry	166.26 ± 0.37
201.36 K, Crystal, Vacuum adiabatic calorimetry	166.53 ± 0.37
202.03 K, Crystal, Vacuum adiabatic calorimetry	167.06 ± 0.37
202.22 K, Glass, Small (less than 1 g) adiabatic calorimetry	178.79 ± 0.92
202.47 K, Glass, Small (less than 1 g) adiabatic calorimetry	180.24 ± 0.93
203.09 K, Crystal, Vacuum adiabatic calorimetry	167.78 ± 0.37
203.39 K, Crystal, Vacuum adiabatic calorimetry	168.1 ± 0.37
203.43 K, Crystal, Vacuum adiabatic calorimetry	167.91 ± 0.37
203.43 K, Metastable crystal, Small (less than 1 g) adiabatic calorimetry	170.24 ± 0.88
204.75 K, Crystal, Vacuum adiabatic calorimetry	169.11 ± 0.37
204.84 K, Glass, Small (less than 1 g) adiabatic calorimetry	187.91 ± 0.96
204.96 K, Glass, Small (less than 1 g) adiabatic calorimetry	184.36 ± 0.94
205.16 K, Crystal, Vacuum adiabatic calorimetry	169.18 ± 0.37
205.49 K, Crystal, Vacuum adiabatic calorimetry	169.21 ± 0.37
205.88 K, Metastable crystal, Small (less than 1 g) adiabatic calorimetry	171.68 ± 0.89
206.12 K, Crystal, Vacuum adiabatic calorimetry	170 ± 0.37
207.12 K, Glass, Small (less than 1 g) adiabatic calorimetry	199.89 ± 1
207.47 K, Crystal, Vacuum adiabatic calorimetry	170.79 ± 0.37
207.56 K, Crystal, Vacuum adiabatic calorimetry	170.75 ± 0.37
207.61 K, Glass, Small (less than 1 g) adiabatic calorimetry	196 ± 1
208.34 K, Metastable crystal, Small (less than 1 g) adiabatic calorimetry	173.15 ± 0.89
208.84 K, Crystal, Vacuum adiabatic calorimetry	171.68 ± 0.37
209.31 K, Glass, Small (less than 1 g) adiabatic calorimetry	214.39 ± 1.1
209.63 K, Crystal, Vacuum adiabatic calorimetry	172.23 ± 0.37
210.02 K, Glass, Small (less than 1 g) adiabatic calorimetry	225.97 ± 1.1
210.2 K, Crystal, Vacuum adiabatic calorimetry	172.56 ± 0.37
210.79 K, Metastable crystal, Small (less than 1 g) adiabatic calorimetry	174.52 ± 0.9
211.34 K, Glass, Small (less than 1 g) adiabatic calorimetry	239.57 ± 1.2
211.57 K, Crystal, Vacuum adiabatic calorimetry	173.4 ± 0.37
211.7 K, Crystal, Vacuum adiabatic calorimetry	173.55 ± 0.37
212.2 K, Liquid, Small (less than 1 g) adiabatic calorimetry	259.73 ± 1.2
212.93 K, Crystal, Vacuum adiabatic calorimetry	174.3 ± 0.38
213.23 K, Metastable crystal, Small (less than 1 g) adiabatic calorimetry	176.24 ± 0.9
213.27 K, Glass, Small (less than 1 g) adiabatic calorimetry	257.87 ± 1.3
213.77 K, Crystal, Vacuum adiabatic calorimetry	174.86 ± 0.38
214.3 K, Crystal, Vacuum adiabatic calorimetry	175.3 ± 0.38
214.46 K, Liquid, Small (less than 1 g) adiabatic calorimetry	259.1 ± 1.2
215.25 K, Liquid, Small (less than 1 g) adiabatic calorimetry	259.12 ± 1.2
215.66 K, Crystal, Vacuum adiabatic calorimetry	176.2 ± 0.38
215.67 K, Metastable crystal, Small (less than 1 g) adiabatic calorimetry	177.87 ± 0.91
215.84 K, Crystal, Vacuum adiabatic calorimetry	176.33 ± 0.38
216.73 K, Liquid, Small (less than 1 g) adiabatic calorimetry	260.04 ± 1.2
217.03 K, Crystal, Vacuum adiabatic calorimetry	177.11 ± 0.38
217.09 K, Liquid, Small (less than 1 g) adiabatic calorimetry	259.63 ± 1.2
217.24 K, Liquid, Small (less than 1 g) adiabatic calorimetry	260 ± 1.2
217.9 K, Liquid, Small (less than 1 g) adiabatic calorimetry	259.51 ± 1.2
217.92 K, Crystal, Vacuum adiabatic calorimetry	177.82 ± 0.38
218.11 K, Metastable crystal, Small (less than 1 g) adiabatic calorimetry	179.69 ± 0.92
218.4 K, Crystal, Vacuum adiabatic calorimetry	178.04 ± 0.38
219.01 K, Liquid, Small (less than 1 g) adiabatic calorimetry	260.43 ± 1.3
219.18 K, Liquid, Small (less than 1 g) adiabatic calorimetry	259.88 ± 1.2
219.24 K, Liquid, Small (less than 1 g) adiabatic calorimetry	260.35 ± 1.3
219.77 K, Crystal, Vacuum adiabatic calorimetry	179.06 ± 0.38
219.98 K, Liquid, Small (less than 1 g) adiabatic calorimetry	259.88 ± 1.2
219.99 K, Crystal, Vacuum adiabatic calorimetry	179.17 ± 0.38
220.54 K, Metastable crystal, Small (less than 1 g) adiabatic calorimetry	181.19 ± 0.92
221.14 K, Crystal, Vacuum adiabatic calorimetry	179.92 ± 0.38
221.23 K, Liquid, Small (less than 1 g) adiabatic calorimetry	260.68 ± 1.3
221.29 K, Liquid, Small (less than 1 g) adiabatic calorimetry	260.8 ± 1.3
222.07 K, Crystal, Vacuum adiabatic calorimetry	180.63 ± 0.38
222.07 K, Liquid, Small (less than 1 g) adiabatic calorimetry	260.23 ± 1.2
222.51 K, Crystal, Vacuum adiabatic calorimetry	180.9 ± 0.38
222.97 K, Metastable crystal, Small (less than 1 g) adiabatic calorimetry	182.89 ± 0.93
223.23 K, Liquid, Small (less than 1 g) adiabatic calorimetry	261 ± 1.3
223.57 K, Liquid, Small (less than 1 g) adiabatic calorimetry	261.15 ± 1.3
223.88 K, Crystal, Vacuum adiabatic calorimetry	181.95 ± 0.38
224.15 K, Crystal, Vacuum adiabatic calorimetry	182.18 ± 0.38
224.16 K, Liquid, Small (less than 1 g) adiabatic calorimetry	260.59 ± 1.2
225.24 K, Liquid, Small (less than 1 g) adiabatic calorimetry	261.29 ± 1.3
225.25 K, Crystal, Vacuum adiabatic calorimetry	182.95 ± 0.38
225.39 K, Metastable crystal, Small (less than 1 g) adiabatic calorimetry	184.41 ± 0.94
225.86 K, Liquid, Small (less than 1 g) adiabatic calorimetry	261.58 ± 1.3
226.23 K, Crystal, Vacuum adiabatic calorimetry	183.69 ± 0.38
226.24 K, Liquid, Small (less than 1 g) adiabatic calorimetry	260.96 ± 1.2
226.63 K, Crystal, Vacuum adiabatic calorimetry	183.97 ± 0.38
227.24 K, Liquid, Small (less than 1 g) adiabatic calorimetry	261.74 ± 1.3
227.8 K, Metastable crystal, Small (less than 1 g) adiabatic calorimetry	186.11 ± 0.95
228 K, Crystal, Vacuum adiabatic calorimetry	184.96 ± 0.39
228.15 K, Liquid, Small (less than 1 g) adiabatic calorimetry	262.01 ± 1.3
228.31 K, Crystal, Vacuum adiabatic calorimetry	185.39 ± 0.39
228.33 K, Liquid, Small (less than 1 g) adiabatic calorimetry	261.35 ± 1.2
229.25 K, Liquid, Small (less than 1 g) adiabatic calorimetry	262.21 ± 1.3
229.38 K, Crystal, Vacuum adiabatic calorimetry	186.04 ± 0.39
230.21 K, Metastable crystal, Small (less than 1 g) adiabatic calorimetry	187.89 ± 0.95
230.39 K, Crystal, Vacuum adiabatic calorimetry	186.96 ± 0.39
230.42 K, Liquid, Small (less than 1 g) adiabatic calorimetry	261.8 ± 1.2
230.44 K, Liquid, Small (less than 1 g) adiabatic calorimetry	262.44 ± 1.3
230.75 K, Crystal, Vacuum adiabatic calorimetry	187.19 ± 0.39
231.26 K, Liquid, Small (less than 1 g) adiabatic calorimetry	262.65 ± 1.3
232.13 K, Crystal, Vacuum adiabatic calorimetry	188.21 ± 0.39
232.47 K, Crystal, Vacuum adiabatic calorimetry	188.55 ± 0.39
232.51 K, Liquid, Small (less than 1 g) adiabatic calorimetry	262.24 ± 1.2
232.62 K, Metastable crystal, Small (less than 1 g) adiabatic calorimetry	189.5 ± 0.96
232.74 K, Liquid, Small (less than 1 g) adiabatic calorimetry	263.08 ± 1.3
233.01 K, Crystal, Vacuum adiabatic calorimetry	189.36 ± 0.39
233.27 K, Liquid, Small (less than 1 g) adiabatic calorimetry	263.01 ± 1.3
233.5 K, Crystal, Vacuum adiabatic calorimetry	189.25 ± 0.39
234.55 K, Crystal, Vacuum adiabatic calorimetry	190.14 ± 0.39
234.61 K, Liquid, Small (less than 1 g) adiabatic calorimetry	262.58 ± 1.3
234.88 K, Crystal, Vacuum adiabatic calorimetry	190.37 ± 0.39
235.03 K, Liquid, Small (less than 1 g) adiabatic calorimetry	263.49 ± 1.3
235.28 K, Liquid, Small (less than 1 g) adiabatic calorimetry	263.42 ± 1.3
235.72 K, Metastable crystal, Small (less than 1 g) adiabatic calorimetry	191.63 ± 0.97
236.26 K, Crystal, Vacuum adiabatic calorimetry	191.4 ± 0.39
236.63 K, Crystal, Vacuum adiabatic calorimetry	191.86 ± 0.39
236.7 K, Liquid, Small (less than 1 g) adiabatic calorimetry	263.12 ± 1.3
237.29 K, Liquid, Small (less than 1 g) adiabatic calorimetry	263.79 ± 1.3
237.33 K, Liquid, Small (less than 1 g) adiabatic calorimetry	263.86 ± 1.3
237.63 K, Crystal, Vacuum adiabatic calorimetry	192.56 ± 0.39
238.14 K, Metastable crystal, Small (less than 1 g) adiabatic calorimetry	193.62 ± 0.97
238.71 K, Crystal, Vacuum adiabatic calorimetry	193.49 ± 0.39
238.79 K, Liquid, Small (less than 1 g) adiabatic calorimetry	264.33 ± 1.3
239.01 K, Crystal, Vacuum adiabatic calorimetry	193.7 ± 0.39
239.3 K, Liquid, Small (less than 1 g) adiabatic calorimetry	264.2 ± 1.3
239.63 K, Liquid, Small (less than 1 g) adiabatic calorimetry	264.39 ± 1.3
240.21 K, Liquid, Small (less than 1 g) adiabatic calorimetry	263.92 ± 1.3
240.38 K, Crystal, Vacuum adiabatic calorimetry	194.84 ± 0.4
240.53 K, Metastable crystal, Small (less than 1 g) adiabatic calorimetry	195.14 ± 0.98
240.78 K, Crystal, Vacuum adiabatic calorimetry	195.37 ± 0.4
240.89 K, Liquid, Small (less than 1 g) adiabatic calorimetry	264.51 ± 1.3
241.32 K, Liquid, Small (less than 1 g) adiabatic calorimetry	264.76 ± 1.3
241.76 K, Crystal, Vacuum adiabatic calorimetry	196.04 ± 0.4
241.93 K, Liquid, Small (less than 1 g) adiabatic calorimetry	265.02 ± 1.3
242.32 K, Liquid, Small (less than 1 g) adiabatic calorimetry	264.51 ± 1.3
242.39 K, Crystal, Vacuum adiabatic calorimetry	197.23 ± 0.4
242.86 K, Crystal, Vacuum adiabatic calorimetry	197.07 ± 0.4
242.91 K, Metastable crystal, Small (less than 1 g) adiabatic calorimetry	197.2 ± 0.99
243.14 K, Crystal, Vacuum adiabatic calorimetry	197.19 ± 0.4
243.34 K, Liquid, Small (less than 1 g) adiabatic calorimetry	265.19 ± 1.3
244.23 K, Liquid, Small (less than 1 g) adiabatic calorimetry	265.58 ± 1.3
